Test results from PubChem BioAssay AID651764 (The Scripps Research Institute Molecular Screening Center, 2012).
The source made the active and inactive calls. The rule behind the calls is not given here.

What follows are compounds tested against Delta-type opioid receptor (Homo sapiens) (UniProt P41143) (assay: activators in OPRD1-only cells, late-stage follow-up, counter-screen for OPRM1-OPRD1 heterodimer activator project, cell-based, luminescence, dose response, set 2 (AID 651764)). Conditions: OPRD1 cell-based luminescence activation counterscreen.
Sequence of Delta-type opioid receptor (Homo sapiens) (P41143 whole entry, looked up): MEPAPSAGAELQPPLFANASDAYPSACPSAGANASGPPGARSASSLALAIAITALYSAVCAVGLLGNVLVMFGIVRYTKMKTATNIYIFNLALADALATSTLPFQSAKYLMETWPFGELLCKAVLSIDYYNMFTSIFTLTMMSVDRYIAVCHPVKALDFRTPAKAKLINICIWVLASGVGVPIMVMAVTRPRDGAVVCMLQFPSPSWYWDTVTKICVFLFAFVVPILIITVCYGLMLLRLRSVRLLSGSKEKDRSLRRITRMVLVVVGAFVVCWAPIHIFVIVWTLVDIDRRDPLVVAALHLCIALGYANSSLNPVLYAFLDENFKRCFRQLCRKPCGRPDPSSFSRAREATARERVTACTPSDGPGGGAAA

Structure (SMILES) | EC50
C=Cc1ccc(C(=O)N2CCC(CCc3ccccc3)(C(=O)OCC)CC2)cc1 | > 50 µM (inactive)
CCOC(=O)C1(CCc2ccccc2)CCN(Cc2ccc(C(=O)OC)cc2)CC1 | > 50 µM (inactive)
C=Cc1ccc(C(=O)N2CCC(CCCc3ccccc3)(C(=O)OCC)CC2)cc1 | > 50 µM (inactive)
CCOC(=O)C1(Cc2ccc(OC)cc2)CCN(C(=O)c2ccc(N(C)C)cc2)CC1 | > 50 µM (inactive)
CCOC(=O)C1(CCc2ccccc2)CCN(C(=O)Nc2ccc(C)cc2C)CC1 | > 50 µM (inactive)
CCOC(=O)C1(CCc2ccccc2)CCN(Cc2c(O)cccc2OC)CC1 | > 50 µM (inactive)
CCOC(=O)C1(CCc2ccccc2)CCN(Cc2ccc(C#CC(C)(C)O)cc2)CC1 | > 50 µM (inactive)
CCOC(=O)C1(CCc2ccccc2)CCN(Cc2ccncc2)CC1 | > 50 µM (inactive)
CCOC(=O)C1(CCOC)CCN(Cc2ccc(N(C)c3ccccc3)cc2)CC1 | > 50 µM (inactive)
CCOC(=O)C1(CCc2ccccc2)CCCN(Cc2ccc(N3CCNC3=O)cc2)C1 (stereo not drawn) | > 50 µM (inactive)
CCOC(=O)C1(CCc2ccccc2)CCN(Cc2ccc(OC)cc2)CC1 | > 50 µM (inactive)
CCOC(=O)C1(CCc2ccccc2)CCN(Cc2ccc(O)cc2)CC1 | > 50 µM (inactive)

Other lines, results leading:

EC50 | Structure (SMILES)
> 50 µM (inactive) | CCOC(=O)C1(Cc2ccccc2C)CCCN(Cc2ccc(NC(C)=O)cc2)C1 (stereo not drawn)
> 50 µM (inactive) | CC(=O)Nc1ccc(CN2CCCC(CO)(CCc3ccccc3)C2)cc1 (stereo not drawn)
> 50 µM (inactive) | CCOC(=O)C1(Cc2cccc(OC)c2)CCCN(Cc2ccc(NC(C)=O)cc2)C1 (stereo not drawn)
> 50 µM (inactive) | CCOC(=O)C1CCN(CCC(=O)Nc2ccc(C)cc2)CC1
> 50 µM (inactive) | CCOC(=O)C1CCN(C(=O)c2ccc(N(C)C)cc2)CC1
> 50 µM (inactive) | CCOC(=O)C1CCN(Cc2ccc(N(C)C)cc2)CC1
> 50 µM (inactive) | O=C(O)C1CCCCC1C(=O)Nc1ccc(CN2CCCCC2)cc1 (stereo not drawn)
> 50 µM (inactive) | CCOC(=O)C1(CCOC)CCCN(Cc2ccc(NC(C)=O)cc2)C1 (stereo not drawn)
> 50 µM (inactive) | CCOC(=O)C1(CCOC)CCN(Cc2ccc(NC(C)=O)cc2)CC1
> 50 µM (inactive) | CCOC(=O)C1(CC2CC2)CCN(C(=O)c2ccc(N3CCCCC3)cc2)CC1
> 50 µM (inactive) | CCOC(=O)C1CCN(Cc2ccc(NC(C)=O)cc2)CC1
> 50 µM (inactive) | CCOC(=O)C1(Cc2ccccc2)CCCN(Cc2ccc(NC(C)=O)cc2)C1 (stereo not drawn)
> 50 µM (inactive) | CCOC(=O)C1CCCCN1Cc1ccc(NC(C)=O)cc1 (stereo not drawn)
> 50 µM (inactive) | CCOC(=O)C1(CCOc2ccccc2)CCCN(Cc2ccc(NC(C)=O)cc2)C1 (stereo not drawn)
> 50 µM (inactive) | CCOC(=O)C1(CC2CC2)CCN(Cc2ccc(NC(C)=O)cc2)CC1
0.321 µM | CCOC(=O)C1(Cc2ccccc2Cl)CCN(Cc2ccc(NC(C)=O)cc2)CC1
